Reference: the METLIN SMRT retention time set (Domingo-Almenara et al. 2019)

Assay: gradient 5% acetonitrile 3 min, to 50% in 2 min, to 85% in 15 min, held 3 min, 100 µL/min
Conditions: column: Zorbax Extend-C18 2.1 x 50 mm; eluents: water / acetonitrile, 0.1% formic acid
In short: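 Over 3 months, pure standards in mixtures of ~100 molecules were run by HPLC coupled to a quadrupole time-of-flight mass spectrometer in positive and negative ionization mode. The column was a Zorbax Extend-C18 (2.1 × 50 mm, 1.8 μm) at 100 μL/min, eluted with water and acetonitrile each holding 0.1% formic acid, with 40 μL dead and 900 μL dwell volumes. Retention time was determined from adduct peaks chosen by software and checked manually.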

RP-LC retention time	Compound
1310 s	CCN(C(=O)c1ccccc1Cl)c1nc(-c2ccccc2)cs1
648 s	O=C(c1ccccn1)N1CCN(c2cc(-c3cccs3)[nH]n2)CC1
765 s	COc1ccccc1N1CCN(C(=O)C2CCN(c3ncnc4c3oc3ccccc34)CC2)CC1
770 s	Cc1ccc(CNC(=O)c2ncn3c2C(=O)N(C2CC2)C(C)(C(=O)NC2CCCC2)C3)cc1 (stereo not given)
689 s	O=C(c1ccc(F)cc1)N1CCCN(c2nnc3ccc(Cl)cn23)CC1
976 s	CCc1cccc(C)c1NC(=O)C1CCN(S(=O)(=O)c2c(C)nn(-c3ccccc3)c2C)CC1
736 s	O=C(Nc1ccccc1C(F)(F)F)N1CCCC1c1nncn1-c1ccccc1 (stereo not given)
949 s	Cc1cccc2c(=O)n(C3CCN(S(=O)(=O)c4ccc(F)cc4)CC3)cnc12
625 s	CCCC(=O)Nc1sccc1C(N)=O
563 s	Cn1cccc1C(CNS(=O)(=O)c1ccc2c(c1)OCCO2)N1CCOCC1 (stereo not given)
623 s	COCC(=O)N1CCc2c(sc3ncnc(N4CCOCC4)c23)C1
646 s	CCCC(=O)Nc1ccc(CCc2nc3ccc(C(=O)NCC(C)C)cc3[nH]2)cc1
959 s	Cc1cc(S(=O)(=O)N2C[C@@H](F)C[C@H]2C(=O)N2CCc3ccccc3C2)ccc1F
1030 s	Cc1cc(NS(=O)(=O)c2ccc(-c3c(C)noc3C)cc2)ccc1Br
1170 s	Cc1ccc(Nc2c(-c3ccc(Br)cc3)nc3cnccn23)c(C)c1
1000 s	COC(=O)c1cc(S(=O)(=O)N2CCCC2C(=O)Nc2ccc(C)cc2Br)cn1C (stereo not given)
785 s	O=C(Cn1ccc2sccc2c1=O)NCc1ccccc1F
759 s	Cc1ccc(C)c(N2CCN(C(=O)c3cn4ccc(C)cc4n3)CC2)c1
804 s	CC(=O)Nc1ccc(C2(C(=O)NCc3ccc(F)cc3Cl)CCC2)cc1
1120 s	CCCS(=O)(=O)N1CCC2(CC1)C(=O)N(c1cccc(F)c1)C2c1ccccc1 (stereo not given)
919 s	Cc1ccc(CNC(=O)C2(C)CN(S(C)(=O)=O)CC(=O)N2c2ccc(Cl)cc2C)cc1 (stereo not given)
951 s	COc1ccc(NC(=O)Cn2cccc2-c2nnc(C3CCC3)o2)cc1Cl
690 s	CSc1ncccc1C(=O)N(Cc1ccsc1)Cc1ccccn1

RP-LC retention time	Compound
696 s	Cc1cc(-c2nnc(NC(=O)C3CCCN(S(=O)(=O)c4cccs4)C3)o2)nn1C (stereo not given)
732 s	Cc1cccc(CNC(=O)c2cc3n(n2)CC(C)(C(=O)NCc2ccccc2)N(C)C3=O)c1 (stereo not given)
746 s	O=C(Nc1nnc(C2CC(=O)N(c3ccccc3)C2)o1)c1ccc(Cl)cc1 (stereo not given)
817 s	Nc1ccc(SCC(=O)Nc2nc(-c3ccccc3)cs2)cc1
699 s	CCc1nc2sc(C)nn2c1S(=O)(=O)N1CCOCC1
600 s	CCOc1cc(=O)n2c(c1C(=O)NCCOC)CCCCC2
1120 s	O=S(=O)(Nc1ccc(F)cc1)c1cccnc1Nc1ccc(Cl)cc1
1010 s	CCOC(=O)N1CCN(C(=O)Cc2c(C)nn(-c3nc(-c4ccc(F)cc4)cs3)c2C)CC1
639 s	Cn1ncc2c3ccccc3n(CC(=O)N3CCN(Cc4ccccc4)CC3)c2c1=O
661 s	CCCNC(=O)CC1CCN(C(=O)c2[nH]c(C)cc2C)CC1
904 s	Cc1cccc2c(=O)n(C3CCN(S(=O)(=O)c4ccc(F)cc4F)CC3)cnc12
796 s	c1ccc(CNc2nc(NCc3ccccc3)c3ccccc3n2)cc1
1290 s	CCC(C)(C)NS(=O)(=O)c1cccc(-c2nc(-c3ccc(C)cc3)no2)c1
912 s	CC1CCN(c2ccc(-c3noc(CN(C)Cc4ccccc4)n3)cn2)CC1
902 s	Cc1csc(NC(=O)c2ccc(Br)cc2)n1
683 s	CCN(CC)c1nc2ccsc2c(=O)n1CCC(=O)N1CCN(c2ccccn2)CC1
705 s	O=C(C1CCN(S(=O)(=O)Cc2ccc(F)cc2)CC1)N1CCOCC1
879 s	O=C(NCc1ccc(-c2noc(Cc3cccc(F)c3)n2)s1)C1CC1
657 s	CCn1cc(-c2ccc(C)cc2)cc1C(=O)N1CCN(C)CC1
575 s	Cc1nc2ccn(Cc3cccnc3)c(=O)c2cc1C(=O)NCc1ccco1
676 s	COCCOc1nc(N)c2[nH]c(=O)n(Cc3ccccc3)c2n1
766 s	CCOC(=O)c1c(S(=O)(=O)N2CCC(C(=O)NC3CCCC3)CC2)c(C)n(C)c1C
810 s	O=C(Nc1nc(-c2nc3ccccc3s2)cs1)c1ccno1

RP-LC retention time	Compound
796 s	Cc1oc(-c2[nH]ncc2C(=O)N2CCCCC2)cc1S(=O)(=O)Nc1cccc(Cl)c1
754 s	COc1cccc(CNC(=O)C2CCCN(c3nnc4ccc(Cl)cn34)C2)c1OC (stereo not given)
838 s	Cc1ccc(N2CC(c3nc(-c4ccccn4)no3)CC2=O)cc1Cl (stereo not given)
1350 s	Cc1ccc(-c2noc(-c3ccccc3S(=O)(=O)N3CC=C(c4ccccc4)CC3)n2)cc1
980 s	CCCn1cc(S(=O)(=O)Nc2ccc(Cl)cc2F)c2cccnc21
824 s	Cc1ccc(NC(=O)N2CCC3(CC2)N=C(c2ccccc2)C(=O)N3)cc1C
959 s	Cc1cc(F)ccc1NC(=O)CN1C(=O)CCCc2cc(S(=O)(=O)N3CCCCC3)ccc21
768 s	CCOc1ccc(C(=O)N2CCC3(CC2)NC(=O)c2ccc(Cl)cc2N3)cc1
1160 s	Cc1ccc2c(c1)N(Cc1nc(-c3ccc(C)c(C)c3)no1)C(=O)CO2
688 s	CCCNC(=O)CCc1nc2ccccc2n(CC(=O)NC(C)CC)c1=O (stereo not given)
668 s	O=C(Nc1cccc2nsnc12)C1CCN(c2ccc(-c3cccs3)nn2)CC1
722 s	CC(C)(C)NC(=O)NC1CCN(c2ccccc2)C1=O (stereo not given)
1010 s	O=C(Cn1cccc1-c1nc(-c2ccc(F)cc2)no1)Nc1ccc2c(c1)OCO2
905 s	CCNC(=O)C1CCN(c2nc3ccc(-c4cccc(F)c4)nc3s2)CC1
735 s	CCC(NC(=O)C1CCCN(c2cnc3nccnc3c2)C1)c1ccc(OC)cc1 (stereo not given)
600 s	CCCN1CCN(C(=O)CCCn2c3ccccc3c3cnn(C)c(=O)c32)CC1
678 s	CCNC(=O)C1CCCN(C(=O)Nc2ccc(NC(=O)Nc3ccc(OC)cc3)cc2)C1 (stereo not given)
855 s	COc1ccc(OCc2noc(CNC(=O)CSc3nc4ccccc4s3)n2)cc1
958 s	CC(C)NC(=O)N1CCCC(c2cccc(C(=O)NCc3cccc(C(F)(F)F)c3)c2)C1 (stereo not given)
680 s	COCCN1C(=O)[C@H]2CN(Cc3ccc(F)c(Br)c3)C[C@H]2C1=O
824 s	Cn1ncc2c3ccccc3n(CCCC(=O)N3CCCCC3)c2c1=O
809 s	Cc1ccn(-c2ccc(Nc3ccc(NC(=O)c4ccccc4C(F)(F)F)cc3)nn2)n1
969 s	CC(Cc1cccs1)NC(=O)Cc1ccc(SC(C)C)cc1 (stereo not given)

RP-LC retention time	Compound
1230 s	O=c1cc(-c2ccncc2)nc(N2CCCC2)n1Cc1cccc(F)c1
583 s	O=C(c1cc(-c2ccco2)[nH]n1)N1CCN(c2ccccn2)CC1
815 s	Cc1cc(C)cc(N2CCC(NC(=O)c3ccsc3)C2=O)c1 (stereo not given)
599 s	CC(=O)N(C)Cc1nc2ccccc2n1CCOc1ccccc1Cl
696 s	CSc1cccc(NC(=O)N2CCN(c3cc(C)nc(N4CCCC4)n3)CC2)c1
903 s	CCCCNC(=O)c1nccnc1NC(=O)c1ccccc1
907 s	O=C(c1ccsc1)N1CCCC1c1nc(-c2ccc(F)cc2F)no1 (stereo not given)
674 s	CC1CCCCN1CCCNC(=O)CCCn1c(=O)c2cccn2c2ccc(Br)cc21 (stereo not given)
954 s	CS(=O)(=O)N1CCc2cc(NC(=O)Nc3ccc(Br)cc3F)ccc21
780 s	CC(=O)c1ccc(NC(=O)CN2C(=O)CC(c3ccccc3)=Nc3cccnc32)cc1
650 s	Nc1cc([N+](=O)[O-])ccc1N1C(=O)CCCC1=O
1180 s	CC(C)(C)n1c(=O)c2ccc(F)cc2n1CC(=O)N1CCN(c2ccccc2)CC1
729 s	Cc1c(C2CCN(C(=O)c3cc4ccccc4[nH]3)CC2)noc1N
777 s	COc1ccc(NS(=O)(=O)c2ccc(/C=C\c3onc(C)c3NC(C)=O)cc2)c(OC)c1
663 s	CCOC(=O)C1CCN(C(=O)C2CCN(c3cnc4nccnc4c3)CC2)CC1
1020 s	O=C(Nc1nc(-c2nc3ccccc3s2)cs1)c1ccc([N+](=O)[O-])s1
570 s	COc1ccccc1CC(=O)N1CCC(Nc2ncnc3c2CCC3)C1 (stereo not given)
669 s	O=C(Nc1nc(CC(=O)N2CCN(c3ncccn3)CC2)cs1)C1CCCC1
733 s	Cn1ccc2c(cc(C(=O)NCc3cccc(Br)c3)n2C)c1=O
718 s	O=C(c1ccsc1)N1CCN(c2nnc3ccc(C(F)(F)F)cn23)CC1
671 s	CCCCn1cc(S(=O)(=O)NCc2ccccn2)c2cccnc21
